Assay results from PubChem BioAssay (NCI).
Several values for one entry are separate records, joined by “and”; a condition that tells them apart may be missing. Identical values can stand only once.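 Following 48 hours of exposure in 96-well plates, responses at five concentrations were used to interpolate endpoints linearly. GI50: concentration for 50% inhibition of growth. The concentration for full growth arrest is given as TGI.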

Assays:
Test in all cases: NCI tumour cell line growth inhibition, 48 h
HCT-15 colon = tested on: HCT-15 colon
MDA-MB-435 = tested on: MDA-MB-435
CCRF-CEM leukemia = tested on: CCRF-CEM leukemia
HT29 colon = tested on: HT29 colon
NCI-H23 lung = tested on: NCI-H23 lung
786-0 renal = tested on: 786-0 renal
SN12C renal = tested on: SN12C renal
SF-539 CNS = tested on: SF-539 CNS
MCF7 breast = tested on: MCF7 breast
COLO 205 colon = tested on: COLO 205 colon
SK-MEL-2 melanoma = tested on: SK-MEL-2 melanoma
NCI/ADR-RES ovarian = tested on: NCI/ADR-RES ovarian
DU-145 prostate = tested on: DU-145 prostate
SK-MEL-28 melanoma = tested on: SK-MEL-28 melanoma
ACHN renal = tested on: ACHN renal
OVCAR-8 ovarian = tested on: OVCAR-8 ovarian
T-47D breast = tested on: T-47D breast

SMILES	TGI (HCT-15 colon) [µM]	TGI (MDA-MB-435)	TGI (CCRF-CEM leukemia) [µM]	TGI (HT29 colon) [µM]	TGI (NCI-H23 lung) [µM]	TGI (786-0 renal) [µM]	TGI (SN12C renal) [µM]	TGI (SF-539 CNS)	TGI (MCF7 breast)	TGI (COLO 205 colon) [µM]	TGI (SK-MEL-2 melanoma)	TGI (NCI/ADR-RES ovarian) [µM]	TGI (DU-145 prostate) [µM]	TGI (SK-MEL-28 melanoma) [µM]	TGI (ACHN renal)	TGI (OVCAR-8 ovarian)	TGI (T-47D breast)	GI50 (MDA-MB-435) [µM]	GI50 (SK-MEL-2 melanoma) [µM]	GI50 (NCI/ADR-RES ovarian) [µM]
Cc1cccc2c(=O)c3c(O)cc4c(c3n(C)c12)C=CC(C)(C)O4	> 100	> 100 µM	> 100	36.8	> 100	> 100	> 100	> 100 µM	> 100 µM	> 100	> 100 µM	> 100	> 100	> 100	> 100 µM	> 100 µM				
Cc1ccc(S(=O)(=O)NC(=O)NCC(=O)O)cc1	> 100		> 100	> 100	> 100	> 100	> 100	> 100 µM	> 100 µM	> 100	> 100 µM	> 100	> 100	> 100	> 100 µM	> 100 µM	> 100 µM			
C[Si](C)(C)C#CCOC=C1CC1	> 100		> 100	> 100	> 100	> 100	> 100	> 100 µM	> 100 µM	> 100	> 100 µM	> 100	> 100	> 100	> 100 µM	> 100 µM	> 100 µM			
CCCC(=O)Oc1cc(OC(=O)CCC)c2c(C)cc(=O)oc2c1	> 100	> 100 µM	> 100	> 100	> 100	> 100	> 100	> 100 µM	> 100 µM	> 100	> 100 µM	> 100	> 100	> 100	> 100 µM	> 100 µM				
O=C1Cc2c([nH]c3cc(Br)ccc23)-c2ccccc2N1	25.2	> 100 µM	20.2	37.2	> 100	> 100	76.4	37.3 µM	> 100 µM	93.8			79.7	> 100	64.7 µM	73.9 µM	84.1 µM			
COC1=CC(=O)C2C(C1=O)[C@@H]1c3ccccc3OC[C@H]21 (some centres undefined)			> 100	> 100	> 100	> 100		> 100 µM		> 100	> 100 µM			> 100	> 100 µM	> 100 µM				
CC(=O)Oc1ccc2c3c1[C@@H]1O[C@@H]1c1cccc(c1-3)[C@@H]1O[C@H]21		3.38 µM	3.94			3.14			> 100 µM	4.36	> 100 µM	3.76	4.18		3.74 µM	2.85 µM	5.42 µM	1.79	3.12	1.4
CSc1nc(Cl)c2c(n1)Sc1nc3ccccc3n1N=C2	36.7	> 100 µM	46.2	53.6	> 100	70.2	> 100			57.5	> 100 µM	55.1	> 100	> 100	58 µM	36.4 µM	57.2 µM			
CC(=O)c1cccc(NC(=O)/C(=N\NC(=S)NN)C2C(=O)Nc3ccccc3S2=O)c1 (centres undefined)		> 100 µM	> 100	> 100	> 100	> 100	> 100	> 100 µM	> 100 µM		> 100 µM	> 100		> 100	> 100 µM	> 100 µM	> 100 µM			
OCC(O)C(O)C(C=NNc1ncnc2ccc(Br)cc12)=NNc1ncnc2ccc(Br)cc12 (centres undefined)		76.9 µM and > 100 µM		> 100		> 100	> 100	33.7 µM and > 100 µM	35 µM and > 100 µM	> 100	12.1 µM and > 100 µM		9.82	> 100	14.2 µM and > 100 µM	46.9 µM and > 100 µM	16.1 µM and > 100 µM			
Cc1ccc(C(=O)C(C)N)cc1C (centres undefined)			> 100	> 100	> 100	> 100	> 100	> 100 µM		> 100	> 100 µM			> 100	> 100 µM	> 100 µM				
C[C@]12CC[C@H]3[C@@H](CCC4=CC(=O)CC[C@@]43C)[C@@H]1CC[C@@H]2OC(=O)c1cccc2c(=O)c3ccccc3[nH]c12	> 100	> 100 µM	> 100	> 100	> 100	38.6	> 100	> 100 µM	> 100 µM	> 100	> 100 µM	> 100		> 100	> 100 µM	> 100 µM	> 100 µM			
CC(C)[Si](OC1=CCC[C@H]2NC(=O)[C@@H](Cc3ccc([N+](=O)[O-])cc3)[C@@]12C)(C(C)C)C(C)C	15.6		8.19	5.13	18.6	17.8	3.8	5.41 µM	10.7 µM	17	28 µM	28	21.3		4.28 µM	24.4 µM	18.4 µM			
COc1cc2c(cc1OC)C(=O)N1CCCC1C(=O)S2 (centres undefined)	> 100		> 100		> 100	> 100	> 100	> 100 µM		> 100	> 100 µM			> 100	> 100 µM	> 100 µM				
CC(=O)Oc1cc2c(n(C)c1=O)CCC2	> 100	> 100 µM	> 100	> 100	> 100	> 100	> 100	> 100 µM	> 100 µM	> 100	> 100 µM	> 100	> 100	> 100	> 100 µM	> 100 µM				
